Experimental data from US20130053430A1, “MODULATION OF CETP EXPRESSION” (Isis Pharmaceuticals, Inc., priority 2010, published 2013).
e = 2'-O-(2-methoxyethyl) (MOE); d = 2'-deoxy (DNA)

Columns and labels:
[1] = system: CETP protein; experiment: Plasma CETP protein by ELISA, dose response (Example 9); assay type: in vivo, human; settings: huCETP transgenic mice, Western diet, s.c. 6 weeks
Protocol: (§1) Another group received subcutaneous injections of control oligonucleotide ISIS 141923 at a dose of 50 mg/kg/week for 6 weeks. One group of mice received subcutaneous injections of PBS for 6 weeks. The PBS-injected group served as the control group to which treatment groups were compared.
Plasma CETP protein levels were measured by ELISA (Alpco). The results are expressed as percent inhibition of CETP protein, relative to the PBS control.

[2] = Liver function, plasma ALT and AST, dose response (Example 9); assay type: in vivo, mice
Protocol: as §1

[3] = Plasma glucose, dose response (Example 9); assay type: in vivo, mice
Protocol: as §1
Plasma glucose values were determined using a Beckman Glucose Analyzer II (Beckman Coulter) by a glucose oxidase method (Lott, J. A. et al., Clin. Chem. 21: 1754-1760, 1975).

[4] = Plasma cholesterol and triglyceride levels in huCETP transgenic mice (Example 5); assay type: in vivo; settings: 50 mg/kg i.p. twice per week; for HDL / LDL / Total cholesterol / Triglycerides / VLDL: plasma
Protocol: The mice were divided into five treatment groups. The first four groups received intraperitoneal injections of ISIS 349511, ISIS 349512, ISIS 349515, or ISIS 349517 at a dose of 50 mg/kg twice per week for 6 weeks. The fifth group received intraperitoneal injections of saline twice weekly for 6 weeks.
Plasma cholesterol were extracted at weeks 3 and 6 by the method of Bligh and Dyer (Bligh, E. G. and Dyer, W. J. Can. J. Biochem. Physiol. 37: 911-917, 1959) and measured with an Olympus clinical analyzer (Hitachi Olympus AU400e, Melville, N.Y.). HDL, LDL and VLDL cholesterol were individually measured by HPLC. Triglyceride levels were measured with the use of a commercially available triglyceride kit (DCL Triglyceride Reagent; Diagnostic Chemicals Ltd.). The results are presented in Tables 13 and 14 and are expressed in mg/dL. There was a significant increase in HDL levels in mice treated with ISIS oligonucleotides.

[5] = system: human CETP mRNA; experiment: Antisense inhibition of human CETP mRNA in SW872 liposarcoma cells (Example 1); assay type: cell-based; settings: 150 nM antisense oligonucleotide, lipofectin, ~24 hours, relative to untreated control cells
In short: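 SW872 cells transfected (lipofectin) with 150 nM 5-10-5 MOE gapmer (phosphorothioate, 5-methylcytosine). After about 24 h, CETP mRNA measured by qRT-PCR, normalized to GAPDH; values are % inhibition versus untreated cells.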

[6] = system: human CETP mRNA; experiment: Antisense inhibition of human CETP mRNA in primary hepatocytes from huCETP transgenic mice (Example 4); assay type: cell-based, mouse; settings: cytofectin, ~24 hours
In short: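 Primary hepatocytes from human CETP transgenic mice, 17,500 cells/well, transfected by cytofectin with 100 nM or 200 nM antisense oligonucleotide. After about 24 h, CETP mRNA quantified by real-time PCR, normalised to GAPDH, as percent inhibition versus untreated cells.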

Q: Which “Percent inhibition of plasma CETP protein levels” value ([1]; Dose 50 mg/kg/wk) does the source give for “ISIS 141923: CCTTCCCTGAAGGTTCCTCC, 5-10-5 MOE gapmer, a control oligonucleotide which has no known murine target (sugars from the 5' end e5 d10 e5, backbone and methylation of C not given here) [reference compound]” here?
A: 7%

Q: And the ALT levels ([2]; 50 mg/kg/wk, Week 0)?
A: 27 IU/L

Q: What about the AST levels ([2]; 50 mg/kg/wk, Week 0) of the same substance?
A: 26 IU/L

Q: And the ALT levels ([2]; 50 mg/kg/wk, Week 3)?
A: 27 IU/L

Q: And the AST levels ([2]; 50 mg/kg/wk, Week 3)?
A: 46 IU/L

Q: What about the ALT levels ([2]; 50 mg/kg/wk, Week 6) of the same substance?
A: 45 IU/L

Q: What about the AST levels ([2]; 50 mg/kg/wk, Week 6) of the same substance?
A: 107 IU/L

Q: And the Glucose levels ([3]; 50 mg/kg/wk, Week 0)?
A: 311 mg/dL

Q: What about the Glucose levels ([3]; 50 mg/kg/wk, Week 3) of the same substance?
A: 256 mg/dL

Q: And the Glucose levels ([3]; 50 mg/kg/wk, Week 6)?
A: 305 mg/dL

Q: For “ISIS 349511: 5-10-5 MOE gapmer CCCGACCTCCTTGGAGACTT (sugars from the 5' end e5 d10 e5, backbone and methylation of C not given here)”, which “Percentage of HDL in total cholesterol” value ([4]; Week 3) is on record?
A: 73%

Q: What about the “Percentage of HDL in total cholesterol” value ([4]; week 6) of the same substance?
A: 76%

Q: What about the HDL ([4]; week 3) of the same substance?
A: 60 mg/dL

Q: What about the LDL ([4]; week 3) of the same substance?
A: 15 mg/dL

Q: What about the Total cholesterol ([4]; week 3) of the same substance?
A: 83 mg/dL

Q: What about the Triglycerides ([4]; week 3) of the same substance?
A: 87 mg/dL

Q: And the HDL ([4]; week 6)?
A: 66 mg/dL

Q: What about the LDL ([4]; week 6) of the same substance?
A: 17 mg/dL

Q: And the Total cholesterol ([4]; week 6)?
A: 88 mg/dL

Q: What about the Triglycerides ([4]; week 6) of the same substance?
A: 84 mg/dL

Q: What about the VLDL ([4]; week 6) of the same substance?
A: 4 mg/dL

Q: And the “% inhibition” value [5]?
A: 66%

Q: What about the “Percent inhibition of human CETP mRNA” value ([6]; 100 nM) of the same substance?
A: 74%

Q: And the “Percent inhibition of human CETP mRNA” value ([6]; 200 nM)?
A: 95%

Q: With “ISIS 349517: 5-10-5 MOE gapmer CAGCACTTTAATGCCAGTGG (sugars from the 5' end e5 d10 e5, backbone and methylation of C not given here)” as the substance, how does the “Percentage of HDL in total cholesterol” value ([4]; Week 3) read?
A: 75%

Q: What about the “Percentage of HDL in total cholesterol” value ([4]; week 6) of the same substance?
A: 74%

Q: What about the HDL ([4]; week 3) of the same substance?
A: 59 mg/dL

Q: And the LDL ([4]; week 3)?
A: 14 mg/dL

Q: What about the Total cholesterol ([4]; week 3) of the same substance?
A: 79 mg/dL

Q: And the Triglycerides ([4]; week 3)?
A: 68 mg/dL

Q: And the HDL ([4]; week 6)?
A: 55 mg/dL

Q: And the LDL ([4]; week 6)?
A: 15 mg/dL

Q: What about the Total cholesterol ([4]; week 6) of the same substance?
A: 75 mg/dL

Q: What about the Triglycerides ([4]; week 6) of the same substance?
A: 103 mg/dL

Q: What about the VLDL ([4]; week 6) of the same substance?
A: 4 mg/dL

Q: What about the “Percent inhibition of plasma CETP protein levels” value ([1]; Dose 1.5 mg/kg/wk) of the same substance?
A: 58%

Q: And the “Percent inhibition of plasma CETP protein levels” value ([1]; Dose 5 mg/kg/wk)?
A: 74%

Q: What about the “Percent inhibition of plasma CETP protein levels” value ([1]; Dose 15 mg/kg/wk) of the same substance?
A: 81%

Q: What about the “Percent inhibition of plasma CETP protein levels” value ([1]; Dose 50 mg/kg/wk) of the same substance?
A: 80%

Q: And the ALT levels ([2]; 1.5 mg/kg/wk, Week 0)?
A: 20 IU/L

Q: What about the AST levels ([2]; 1.5 mg/kg/wk, Week 0) of the same substance?
A: 38 IU/L

Q: What about the ALT levels ([2]; 1.5 mg/kg/wk, Week 3) of the same substance?
A: 18 IU/L

Q: What about the AST levels ([2]; 1.5 mg/kg/wk, Week 3) of the same substance?
A: 43 IU/L

Q: What about the ALT levels ([2]; 1.5 mg/kg/wk, Week 6) of the same substance?
A: 54 IU/L

Q: What about the AST levels ([2]; 1.5 mg/kg/wk, Week 6) of the same substance?
A: 133 IU/L

Q: And the ALT levels ([2]; 5 mg/kg/wk, Week 0)?
A: 26 IU/L

Q: What about the AST levels ([2]; 5 mg/kg/wk, Week 0) of the same substance?
A: 40 IU/L

Q: And the ALT levels ([2]; 5 mg/kg/wk, Week 3)?
A: 25 IU/L

Q: And the AST levels ([2]; 5 mg/kg/wk, Week 3)?
A: 46 IU/L

Q: What about the ALT levels ([2]; 5 mg/kg/wk, Week 6) of the same substance?
A: 49 IU/L

Q: What about the AST levels ([2]; 5 mg/kg/wk, Week 6) of the same substance?
A: 246 IU/L

Q: And the ALT levels ([2]; 15 mg/kg/wk, Week 0)?
A: 24 IU/L

Q: What about the AST levels ([2]; 15 mg/kg/wk, Week 0) of the same substance?
A: 24 IU/L

Q: And the ALT levels ([2]; 15 mg/kg/wk, Week 3)?
A: 27 IU/L

Q: What about the AST levels ([2]; 15 mg/kg/wk, Week 3) of the same substance?
A: 47 IU/L

Q: And the ALT levels ([2]; 15 mg/kg/wk, Week 6)?
A: 36 IU/L

Q: And the AST levels ([2]; 15 mg/kg/wk, Week 6)?
A: 70 IU/L

Q: What about the ALT levels ([2]; 50 mg/kg/wk, Week 0) of the same substance?
A: 27 IU/L

Q: And the AST levels ([2]; 50 mg/kg/wk, Week 0)?
A: 27 IU/L

Q: What about the ALT levels ([2]; 50 mg/kg/wk, Week 3) of the same substance?
A: 33 IU/L

Q: What about the AST levels ([2]; 50 mg/kg/wk, Week 3) of the same substance?
A: 52 IU/L

Q: And the ALT levels ([2]; 50 mg/kg/wk, Week 6)?
A: 76 IU/L

Q: And the AST levels ([2]; 50 mg/kg/wk, Week 6)?
A: 171 IU/L

Q: What about the “% inhibition” value [5] of the same substance?
A: 100%

Q: And the “Percent inhibition of human CETP mRNA” value ([6]; 100 nM)?
A: 85%

Q: What about the “Percent inhibition of human CETP mRNA” value ([6]; 200 nM) of the same substance?
A: 98%

Q: What about the Glucose levels ([3]; 1.5 mg/kg/wk, Week 0) of the same substance?
A: 375 mg/dL

Q: And the Glucose levels ([3]; 1.5 mg/kg/wk, Week 3)?
A: 288 mg/dL

Q: What about the Glucose levels ([3]; 1.5 mg/kg/wk, Week 6) of the same substance?
A: 348 mg/dL

Q: What about the Glucose levels ([3]; 5 mg/kg/wk, Week 0) of the same substance?
A: 354 mg/dL

Q: And the Glucose levels ([3]; 5 mg/kg/wk, Week 3)?
A: 287 mg/dL

Q: What about the Glucose levels ([3]; 5 mg/kg/wk, Week 6) of the same substance?
A: 346 mg/dL

Q: What about the Glucose levels ([3]; 15 mg/kg/wk, Week 0) of the same substance?
A: 339 mg/dL

Q: What about the Glucose levels ([3]; 15 mg/kg/wk, Week 3) of the same substance?
A: 271 mg/dL

Q: And the Glucose levels ([3]; 15 mg/kg/wk, Week 6)?
A: 329 mg/dL

Q: What about the Glucose levels ([3]; 50 mg/kg/wk, Week 0) of the same substance?
A: 339 mg/dL

Q: What about the Glucose levels ([3]; 50 mg/kg/wk, Week 3) of the same substance?
A: 269 mg/dL

Q: And the Glucose levels ([3]; 50 mg/kg/wk, Week 6)?
A: 255 mg/dL
